Literature values as cited in patent US20070027175A1, “Antineoplastic activities of ellipticine and its derivatives” (priority 2005, published 2007).

Test system: DNA strand breakage
Conditions: Multon et al., 1989; cited from earlier work

| Compound | potency in DNA strand breakage, times less than m-AMSA |
| --- | --- |
| Cc1c2cc[n+](C)cc2c(C)c2c1[nH]c1ccc(O)cc12 [Celiptium] | 50 times |
| CCN(CC)CC[n+]1ccc2c(C)c3[nH]c4ccc(O)cc4c3c(C)c2c1 [Detalliptinium] | 50 times |
